Like-named read-outs stand apart in the source and are kept apart here.
Assays:
[1] = system: LPS-induced migration of neutrophil and mononuclear cells in the bronchoalveolar space; experiment: Migration of cells in the bronchoalveolar space after activation with bacterial LPS; assay type: in vivo; conditions: mice, doses 0.3 to 30 mg/kg; for ED50: Mus musculus, i.p. 1 hour before 10 μG intratracheal LPS, bronchoalveolar lavage 24 hours after LPS
Method: Migration of cells in the bronchoalveolar space after activation with bacterial LPS (lipopolysaccharide).
Mice weighing 28 to 30 g are stimulated by means of an intratracheal exposure to 10 μG of LPS. 24 hours after the injection of LPS, the animals are anaesthetized with pentobarbital and a bronchoalveolar lavage is performed. The lavage fluids are recovered and are centrifuged, and the cells are then resuspended. The number of cells is counted, differentiating the eosinophil, neutrophil and mononuclear cells according to standard morphological criteria.
The intratracheal injection of LPS induces a considerable increase in the number of mononuclear cells and neutrophils in the bronchoalveolar space of the mice.

[2] = obese patients, clinical studies; cited from earlier work
[3] = STRATUS clinical study, nicotine addiction; cited from earlier work

SMILES: Cc1c(C(=O)NN2CCCCC2)nn(-c2ccc(Cl)cc2Cl)c1-c1ccc(Cl)cc1 [rimonabant, N-piperidino-5-(4-chlorophenyl)-1-(2,4-dichlorophenyl)-4-methylpyrazole-3-carboxamide]
- ED50 ([1]; Mononuclear cell, read-out: ED50, inhibition of migration of the mononuclear cells): 1.9 mg/kg
- ED50 ([1]; Neutrophil, read-out: effective dose 50 (ED50), inhibition of migration of the neutrophil cells): 2.3 mg/kg
- inhibition of migration of the neutrophil cells ([1]; i.p. 1 hour before intratracheal LPS): more than 80%
- effect on hunger, calorie intake and body weight [2]: reduces hunger, calorie intake, and the body weight of obese patients
- effect on giving up smoking [3]: facilitates giving up smoking

Source: patent publication US20080081827A1, “Use of a Pyrazole-Derived Compound that is an Antagonist for Cannabinoid CB1 Receptors, for Treating or Preventing Chronic Bronchitis or Chronic Obstructive Bronchopneumopathy” (SANOFI AVENTIS, priority 2004, published 2008)
